# Reference: ChEMBL document CHEMBL4007505 (J Med Chem, 2017)
# The source made the active and inactive calls. No cut-off for these calls is given here.
# Key:
# [1] = molecular target: T1, Adenosine receptor A3 (Mus musculus) (UniProt Q61618); assay: Displacement of [125I]N6-(4-amino-3-iodobenzyl)adenosine-5'-N-methyluronamide from mouse A3AR expressed in HEK293T cells at 10 uM pre-incubated for 10 mins before radioligand addition and measured 90 mins after radioligand addition by micro beta scintillation counting analysis relative to control; format: cell-based
# T1 sequence (whole entry): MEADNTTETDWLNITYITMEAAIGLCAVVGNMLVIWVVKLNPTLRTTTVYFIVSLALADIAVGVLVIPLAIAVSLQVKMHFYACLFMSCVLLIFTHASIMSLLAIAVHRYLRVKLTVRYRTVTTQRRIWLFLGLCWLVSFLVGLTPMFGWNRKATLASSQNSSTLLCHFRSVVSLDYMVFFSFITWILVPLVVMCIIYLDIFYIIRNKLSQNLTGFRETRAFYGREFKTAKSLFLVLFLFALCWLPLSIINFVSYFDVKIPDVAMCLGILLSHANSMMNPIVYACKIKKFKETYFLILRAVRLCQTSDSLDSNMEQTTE
# Adenosine receptor A3 = molecular target: T2, Adenosine receptor A3 (Homo sapiens, UniProt P0DMS8); assay: Displacement of [125I]N6-(4-amino-3-iodobenzyl)adenosine-5'-N-methyluronamide from human A3AR expressed in HEK293T cells pre-incubated for 10 mins before radioligand addition and measured 90 mins after radioligand addition by micro beta scintillation counting analysis relative to control; format: cell-based, HEK-293T
# T2 sequence (P0DMS8 whole entry): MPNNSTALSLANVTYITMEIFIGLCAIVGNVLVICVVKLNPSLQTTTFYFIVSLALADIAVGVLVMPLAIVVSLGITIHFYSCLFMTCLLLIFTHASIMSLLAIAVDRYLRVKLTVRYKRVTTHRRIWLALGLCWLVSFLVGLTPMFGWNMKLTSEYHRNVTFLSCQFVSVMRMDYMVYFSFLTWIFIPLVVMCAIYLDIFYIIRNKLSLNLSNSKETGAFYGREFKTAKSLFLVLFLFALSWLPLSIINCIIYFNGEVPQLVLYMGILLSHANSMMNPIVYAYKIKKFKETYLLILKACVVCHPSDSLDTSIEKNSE
# [2] = molecular target: Sigma non-opioid intracellular receptor 1 (Rattus norvegicus, UniProt Q9R0C9); assay: Displacement of [3H]Pentazocine from rat sigma 1 receptor
# Sigma non-opioid intracellular receptor 1, sequence (Q9R0C9 whole entry): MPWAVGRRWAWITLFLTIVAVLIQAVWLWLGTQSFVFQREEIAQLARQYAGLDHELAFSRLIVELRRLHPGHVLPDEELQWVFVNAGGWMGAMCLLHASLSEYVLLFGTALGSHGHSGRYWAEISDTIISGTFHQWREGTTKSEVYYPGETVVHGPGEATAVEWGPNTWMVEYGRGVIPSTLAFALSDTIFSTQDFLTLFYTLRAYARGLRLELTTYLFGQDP
# [3] = molecular target: T3, Sodium-dependent dopamine transporter (Homo sapiens, UniProt Q01959); assay: Inhibition of [3H]WIN35,428 binding to recombinant human DAT expressed in HEK293 cell membranes at 10 uM pre-incubated for 10 mins before radioligand addition and measured 90 mins after radioligand addition by micro beta scintillation counting analysis relative to control
# T3 sequence (Q01959 whole entry): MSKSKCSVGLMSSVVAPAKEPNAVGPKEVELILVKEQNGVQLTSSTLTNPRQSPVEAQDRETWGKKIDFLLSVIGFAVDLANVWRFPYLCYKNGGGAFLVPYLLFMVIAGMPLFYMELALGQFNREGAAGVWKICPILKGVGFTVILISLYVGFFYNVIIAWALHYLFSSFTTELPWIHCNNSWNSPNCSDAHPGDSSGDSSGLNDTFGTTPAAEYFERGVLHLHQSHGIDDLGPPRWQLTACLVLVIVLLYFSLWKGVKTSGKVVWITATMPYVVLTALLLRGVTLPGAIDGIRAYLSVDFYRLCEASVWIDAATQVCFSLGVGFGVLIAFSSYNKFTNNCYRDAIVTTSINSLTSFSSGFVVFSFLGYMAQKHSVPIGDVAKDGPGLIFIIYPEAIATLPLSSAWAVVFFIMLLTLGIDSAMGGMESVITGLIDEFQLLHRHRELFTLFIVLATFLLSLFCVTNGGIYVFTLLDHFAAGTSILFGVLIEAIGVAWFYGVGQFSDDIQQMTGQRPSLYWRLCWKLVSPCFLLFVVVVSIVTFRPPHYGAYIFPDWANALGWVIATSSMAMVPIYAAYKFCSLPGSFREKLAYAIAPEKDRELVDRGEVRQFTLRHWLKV
# [4] = molecular target: T3, Sodium-dependent dopamine transporter; assay: Enhancing of [3H]WIN35,428 binding to recombinant human DAT expressed in HEK293 cell membranes at 10 uM pre-incubated for 10 mins before radioligand addition and measured 90 mins after radioligand addition by micro beta scintillation counting analysis relative to control
# [5] = molecular target: T4, 5-hydroxytryptamine receptor 2C (Homo sapiens, UniProt P28335); assay: Displacement of [3H]Mesulergine from human 5-HT2C receptor
# T4 sequence (P28335 whole entry): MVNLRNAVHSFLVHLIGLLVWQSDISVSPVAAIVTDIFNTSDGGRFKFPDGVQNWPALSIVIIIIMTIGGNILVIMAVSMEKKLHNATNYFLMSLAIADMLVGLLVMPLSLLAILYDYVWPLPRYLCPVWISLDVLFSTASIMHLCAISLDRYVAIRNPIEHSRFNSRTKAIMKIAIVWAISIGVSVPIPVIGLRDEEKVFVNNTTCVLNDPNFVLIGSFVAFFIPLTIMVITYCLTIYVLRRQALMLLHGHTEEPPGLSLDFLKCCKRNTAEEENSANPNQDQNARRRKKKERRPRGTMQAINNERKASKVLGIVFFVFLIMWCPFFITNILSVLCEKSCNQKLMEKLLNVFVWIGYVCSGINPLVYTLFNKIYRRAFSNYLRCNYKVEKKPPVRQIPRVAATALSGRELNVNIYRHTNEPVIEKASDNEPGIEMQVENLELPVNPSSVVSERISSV
# [6] = molecular target: Sigma intracellular receptor 2 (Rattus norvegicus, UniProt Q5U3Y7); assay: Displacement of [3H]DTG from rat sigma 2 receptor
# Sigma intracellular receptor 2, sequence (Q5U3Y7 whole entry): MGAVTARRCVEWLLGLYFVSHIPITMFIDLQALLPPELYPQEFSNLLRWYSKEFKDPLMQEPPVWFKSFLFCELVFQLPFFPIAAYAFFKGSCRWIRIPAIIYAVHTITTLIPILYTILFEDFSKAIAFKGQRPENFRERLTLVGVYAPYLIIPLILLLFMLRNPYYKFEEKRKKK
# [7] = molecular target: Muscarinic acetylcholine receptor M5 (Homo sapiens, UniProt P08912); assay: Displacement of [3H]QNB from human muscarinic M5 receptor
# Muscarinic acetylcholine receptor M5, sequence (P08912 whole entry): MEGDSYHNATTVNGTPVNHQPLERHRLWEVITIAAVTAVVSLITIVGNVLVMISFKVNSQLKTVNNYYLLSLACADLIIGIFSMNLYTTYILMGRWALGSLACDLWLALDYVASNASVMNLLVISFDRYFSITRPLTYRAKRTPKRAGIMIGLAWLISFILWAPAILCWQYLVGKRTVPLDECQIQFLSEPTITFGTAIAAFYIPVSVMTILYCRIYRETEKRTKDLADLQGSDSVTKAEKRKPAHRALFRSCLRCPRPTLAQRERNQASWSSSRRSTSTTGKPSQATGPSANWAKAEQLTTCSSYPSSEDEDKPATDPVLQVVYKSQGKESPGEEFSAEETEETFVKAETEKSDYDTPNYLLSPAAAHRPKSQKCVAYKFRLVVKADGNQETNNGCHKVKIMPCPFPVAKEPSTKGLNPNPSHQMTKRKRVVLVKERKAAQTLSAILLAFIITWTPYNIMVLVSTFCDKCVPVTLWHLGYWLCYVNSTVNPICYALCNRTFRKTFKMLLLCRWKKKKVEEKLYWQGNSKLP
# [8] = molecular target: Adenosine receptor A3 (Homo sapiens) (UniProt P0DMS8); assay: Agonist activity at human A3AR assessed as inhibition of cAMP formation at 10 uM relative to adenosine-5'-Nethyluronamide
compound,measurement,setting,value
CCOC(=O)[C@@]12C[C@@H]1[C@@H](n1cnc3c(NC)nc(C#Cc4ccc(Cl)s4)cc31)[C@H](O)[C@@H]2O,inhibition,[1],18%
same,Ki,Adenosine receptor A3,169 nM
same,Ki,[2],1040 nM
same,inhibition,[3],inactive
same,Activity,[4],354%
same,Ki,[5],395 nM
same,Ki,[6],1900 nM
same,Ki,[7],3800 nM
same,Efficacy,[8],3.6%
